Values of other authors as cited in patent US9808553B2, “Haemostatic wound dressing” (Haemostatix Limited, priority 2012, dated 2017).

Target: fibrinogen (Homo sapiens, UniProt P02679)
Sequence (P02679 27-453): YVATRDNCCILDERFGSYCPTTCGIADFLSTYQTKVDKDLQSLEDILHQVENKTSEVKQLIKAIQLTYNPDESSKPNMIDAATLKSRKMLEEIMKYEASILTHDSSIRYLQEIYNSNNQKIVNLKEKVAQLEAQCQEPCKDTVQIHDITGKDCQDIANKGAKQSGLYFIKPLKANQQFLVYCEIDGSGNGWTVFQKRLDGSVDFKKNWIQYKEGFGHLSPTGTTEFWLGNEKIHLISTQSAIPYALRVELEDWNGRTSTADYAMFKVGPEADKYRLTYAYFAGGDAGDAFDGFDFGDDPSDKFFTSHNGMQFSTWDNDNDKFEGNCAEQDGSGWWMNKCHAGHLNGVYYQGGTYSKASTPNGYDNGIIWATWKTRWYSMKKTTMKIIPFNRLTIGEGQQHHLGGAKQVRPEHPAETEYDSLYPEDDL
Sequence (P02671 20-629 partner limits assumed): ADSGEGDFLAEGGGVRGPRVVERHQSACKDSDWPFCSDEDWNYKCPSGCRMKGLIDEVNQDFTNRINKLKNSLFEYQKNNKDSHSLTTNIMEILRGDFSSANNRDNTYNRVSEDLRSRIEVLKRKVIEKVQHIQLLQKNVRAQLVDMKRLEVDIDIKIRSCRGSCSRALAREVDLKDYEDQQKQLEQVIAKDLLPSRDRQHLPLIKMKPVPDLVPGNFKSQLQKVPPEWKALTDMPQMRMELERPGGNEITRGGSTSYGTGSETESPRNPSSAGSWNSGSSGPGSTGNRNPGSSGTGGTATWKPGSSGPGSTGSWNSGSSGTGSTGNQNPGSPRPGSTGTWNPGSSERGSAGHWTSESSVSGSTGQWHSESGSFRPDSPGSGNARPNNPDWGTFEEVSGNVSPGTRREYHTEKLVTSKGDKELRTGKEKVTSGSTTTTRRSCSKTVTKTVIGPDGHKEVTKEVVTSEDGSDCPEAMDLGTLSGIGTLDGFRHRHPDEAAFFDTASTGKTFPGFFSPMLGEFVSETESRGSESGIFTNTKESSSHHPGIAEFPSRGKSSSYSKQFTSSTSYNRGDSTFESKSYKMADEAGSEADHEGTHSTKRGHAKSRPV
Sequence (P02675 31-491 partner): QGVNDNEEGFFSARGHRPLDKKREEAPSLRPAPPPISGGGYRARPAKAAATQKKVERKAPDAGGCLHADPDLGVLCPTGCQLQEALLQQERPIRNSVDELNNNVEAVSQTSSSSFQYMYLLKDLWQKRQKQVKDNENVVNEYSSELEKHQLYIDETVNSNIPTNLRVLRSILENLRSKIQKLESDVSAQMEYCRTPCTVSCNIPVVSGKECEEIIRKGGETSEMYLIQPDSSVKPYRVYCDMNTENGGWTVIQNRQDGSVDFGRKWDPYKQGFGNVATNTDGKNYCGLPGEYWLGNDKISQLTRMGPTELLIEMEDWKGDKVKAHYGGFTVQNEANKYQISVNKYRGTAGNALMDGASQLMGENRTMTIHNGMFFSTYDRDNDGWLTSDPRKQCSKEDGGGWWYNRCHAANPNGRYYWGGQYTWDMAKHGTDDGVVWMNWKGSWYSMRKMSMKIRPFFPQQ

In the case of GPRP, the “Affinity for fibrinogen versus natural cleaved sequence with valine at position four” value is given as “higher affinity”.
